Drawing on US20180153830A1, “SELECTIVE INHIBITORS OF UNDIFFERENTIATED CELLS” (Yissum Research Development Company of the Hebrew …, priority 2012, published 2018), this text covers inhibition and EC50 for eleven molecules.

What is called inhibition is the change of the read-out against control, counted positive when it falls. The EC50 is the concentration needed to bring the measured effect to its halfway point. A lower EC50 goes with a more potent agent.

Holding throughout (type): cell-based
Series [1] deals with H9 human embryonic stem cells. The experiment in a line: CellTiter-Glo luminescent cell viability screen, H9. The conditions noted are these: pluripotent stem cells. How it is done:
(§1) 5,000 CSES2 cells were plated in 50 μl per well of mTeSR1 medium into black 384-well clear-bottom plates (Falcon BD) pre-coated with Matrigel™ using WellMate cell dispenser (Matrix, Hudson, N.H.). 24 hours after plating, medium was replaced with 25 μl of fresh medium and 25 μl of 40 μM compound medium solutions in 1% DMSO from the intermediate compound dilution plates. The plates were incubated at 37° C., in a 5% CO2 atmosphere, for the entire duration of the screen, apart from the time required for liquid handling. Cell viability was determined 24 hours after compound treatment using CellTiter-Glo® luminescent cell viability assay kits. 50 μl of CellTiter-Glo® reagent was added to each well of the assay plates and fully mixed. After incubation at room temperature for 15 minutes, 25 μl of liquid was transferred from each well into a white opaque-bottom 384-well plate (PerkinElmer), and luminescence was measured using an EnVision® plate reader (PerkinElmer). 16 neutral control wells (0.5% DMSO) and 8 positive control wells (5 μM amsacrine hydrochloride were used to normalize the compound effect. All liquid transfer steps were handled with a Biomek® FXP Laboratory Automation Workstation (Beckman Coulter, Fullerton, Calif.) and Muitidrop Combi liquid dispenser (Thermo Fisher, Waltham, Mass.). An Assay Analyzer (Genedata, Basel, Switzerland) was used for data pattern correction and calculation. The Spotfire software (Spotfire, Somerville, Mass.) was used for data illustration.
(§2) The compounds identified as hits from the primary screen were retested at a concentration of 20 μM against three pluripotent stem cell lines (CSES2, H9 and CSES2-SO2/3) for confirmation screens.
(§3) The raw intensity data for each well were background-corrected by subtraction of the median intensities across all positive control wells on the same plate, and used to calculate the inhibitory effect of each compound per cell line. A Genedata Assay Analyzer and Condoseo were used for data pattern correction, calculation and IC50 curve fitting. A Z′ factor was determined for each plate.
Background: In ATP-based viability assays light output follows the ATP content of the culture.

Another series has as its system HeLa cells. Briefly: CellTiter-Glo counter-screen, HeLa. The conditions noted are these: Homo sapiens, cancer cells. As for the experimental part:
The cervical carcinoma cell line HeLa, teratocarcinoma cell line NTERA-2, and immortalized BJ fibroblast cell line, were cultured in DMEM supplemented with 10% FBS, penicillin (50 U/ml) and streptomycin (50 μg/ml).
(§4) 696 confirmed hits from the confirmation screen were tested for profiling in a panel of 13 different cell types, using the same screening protocol described above (except in the case of embryonic stem cell-derived neural stem cells (NSCs) and mesenchymal stem cells (MSCs), for which the protocol is described below). As discussed below, compounds were tested either in dose-dependent multiple concentration manner or in single concentration manner. CSES2 and CSES2-SO2/3 cell lines and the early endodermal progenitors derived from this cell line (CSES2-SO2/3-differentiated) were screened at 8 concentrations ranging from 50 μM to 23 nM with 1:3 serial dilution steps. BJ-iPS28 cell line and the BJ fibroblasts from which it was derived were screened at 6 concentrations ranging from 50 μM to 200 nM with 1:3 serial dilution steps. Cardiomyocytes were screened in one concentration of 20 μM. HeLa and NTERA-2 cell lines were screened in duplicates of 20 μM. Kelly and Huh-7 were screened in triplicates of 20 μM. Hepatocytes were screened in duplicates of 20 μM in the original 96-well plates in which the cells arrived (40,000 cells per well, in 160 μl medium, the volumes of all reagents involved were adjusted accordingly). MSCs and NSCs were screened in duplicates of 12.5 μM.
(§5) In order to identify highly-selective cytotoxic inhibitors of hPSCs, the 696 cytotoxic inhibitors of hPSCs identified as described in Example 1 were counter-screened as described in the Materials and Methods section against other cell types, representative of all germ layers and developmental stages. Importantly, many of these cell types were differentiated from human ES or iPS cells. The screened cell types included ES-derived neural stem cells (NSCs), ES-derived mesenchymal stem cells (MSCs), ES-derived endodermal progenitor cells, ES-derived hepatocytes, iPS-derived cardiomyocytes, iPS-derived fibroblasts of origin (BJ fibroblasts), and three cancer cell lines: neuroblastoma (Kelly), cervical cancer (HeLa) and hepatocarcinoma (Huh7). The cell types and their relationship to stem cells are depicted schematically in FIG. 14.

Series [2] relates to BJ-iPS28 induced pluripotent stem cells. The experiment in a line: CellTiter-Glo luminescent cell viability screen, BJ-iPS28. As to conditions: Homo sapiens; for EC50: 24 h; for inhibition at 20 µM: pluripotent stem cells. How it is done:
as §1
as §4, with “BJ-iPS28 cell line and the BJ fibroblasts from which it was derived were screened at 6 concentrations ranging from 50 μM to 200 nM with 1:3 serial dilution steps.” left out
as §3
The effect of the selected compounds on human iPS cells was then determined. […]

Series [3] concerns neuroblastoma (Kelly) cells. Briefly: CellTiter-Glo counter-screen, Kelly. As to conditions: Homo sapiens, cancer cells. As for the experimental part:
The neuroblastoma cell line Kelly was cultured in RPMI-1640 medium, supplemented with 15% fetal bovine serum (FBS), penicillin (50 U/ml) and streptomycin (50 μg/ml).
as §4, §5

In series [4] the test system is CSES2-SO2/3 embryonic stem cells. The experiment in a line: CellTiter-Glo luminescent cell viability screen, CSES2-SO2/3. As to conditions: Homo sapiens; for EC50: 24 h; for inhibition at 20 µM: pluripotent stem cells. As for the experimental part: as §1, §2, §4, §3
A short description of series [5]: CellTiter-Glo counter-screen, hepatocytes. The conditions noted are these: human, human embryonic stem cell-derived hepatocytes (Cellartis), read-out: Inhibition (%) ES-derived hepatocytes. As for the experimental part: Human embryonic stem cell-derived hepatocytes were obtained from Cellartis (Goteborg, Sweden), and handled according to the manufacturer's instructions;
as §4, §5

Series [6] has as its system iPS-derived cardiomyocytes. Briefly: CellTiter-Glo counter-screen, cardiomyocytes. The conditions noted are these: Homo sapiens, Cardiomyocyte. As for the experimental part:
Human induced pluripotent stem cell-derived cardiomyocytes were obtained from Cellular Dynamics International (Madison, Wis.), and handled according to the manufacturer's instructions;
as §4, §5

For another series, the system named is Huh7 cells. Briefly: CellTiter-Glo counter-screen, Huh7. As to conditions: Homo sapiens, Huh-7, cancer cells. How it is done: The hepatocarcinoma cell line Huh-7 was cultured in a DMEM/F12 (1:1) medium, supplemented with 10% FBS, penicillin (50 U/ml) and streptomycin (50 μg/ml).
as §4, §5

On to `Nc1cc(N)cc(COc2ccc(-c3ccccc3)cc2)c1` [PluriSIn #3], for which the inhibition at 20 µM in series [1] was 110%; with HeLa cells it was -4.2%; in series [2], 81.1%; in series [3] it was 2.3%; in series [4] it was 97.4%; in series [5], 2.8%. Also, the inhibition at 20 µM in series [6] is -2.9%; in the series on Huh7 cells, -5.9%. In addition, the concentration for a half-maximal effect (EC50) in series [2] is 1680 nM; in series [4], 2790 nM.
In the case of `Cc1oc2ccccc2c1/C=N/Nc1ccccc1` [PluriSIn #8], the inhibition at 20 µM in series [1] is 85.5%; in the series with HeLa cells, 14.3%; in series [2], 82.2%; in series [3], -1%; in series [4], 92.7%; in series [5] it was 14.6%. For the same molecule, the inhibition at 20 µM in series [6] was 8.9%; with Huh7 cells, 10.9%. The EC50 in series [2] was found to be 1690 nM; in series [4], 3690 nM.
Turning to `Cc1ccc(NNC(=O)C(O)(c2ccccc2)c2cccs2)cc1` (centres unmarked) [PluriSIn #6, 2-hydroxy-2-(thiophen-2-yl)-2-phenylacetic acid 4-methyl-N′-phenylhydrazide], the inhibition at 20 µM is 90.1% in series [1]; 2.6% with HeLa cells; 83.3% in series [2]; 1.8% in series [3]; 93.2% in series [4]; -5.2% in series [5]. Besides, the inhibition at 20 µM was determined as 2.6% in series [6] and 4.6% in the series on Huh7 cells. Further, the EC50 in series [2] is 2260 nM; in series [4], 3750 nM.
As to `O=C(NNc1ccccc1)c1ccncc1` [PluriSIn #1, isonicotinic acid N′-phenylhydrazide], the inhibition at 20 µM is 88.6% in series [1]; 5.7% in the series on HeLa cells; 85.4% in series [2]; -2% in series [3]; 90.8% in series [4]; 16.2% in series [5]. Further, the inhibition at 20 µM in series [6] was found to be 15%; in the series on Huh7 cells, 5.8%. In addition, the concentration giving a half-maximal response (EC50) in series [2] was 2390 nM; in series [4], 3910 nM.
Take `CC(=O)Oc1ccc(/C=C/c2ccc3c(c2)CCN3C)cc1` [PluriSIn #7]: the inhibition at 20 µM in series [1] was 109%; in the series with HeLa cells, -3.6%; in series [2], 89%; in series [3], 26.7%; in series [4] it was 95.4%; in series [5], 15.3%. Besides, the results for the inhibition at 20 µM (in series [6]; in the series on Huh7 cells) were 6.8% and 11.2%, respectively. Further, the EC50 in series [2] turned out to be 2130 nM; in series [4] it was 2740 nM.
With `CCCCCC(=O)NNc1ccc(Cl)cc1` [PluriSIn #10], the inhibition at 20 µM in series [1] is 88%; in the series on HeLa cells, 3%; in series [2] it was 87.4%; in series [3], 5.7%; in series [4] it was 95.2%; in series [5] it was 3.6%. The inhibition at 20 µM in series [6] was found to be 12.6%; in the series on Huh7 cells, 9.3%. Besides, the values for the EC50 in series [2] and in series [4] were 2420 nM and 2490 nM, respectively.
For the molecule `O=C1C=CC=C1/C=C/C(=N\Nc1ccccc1)c1ccccc1` [PluriSIn #13], the inhibition at 20 µM turned out to be 101% in series [1]; 0% with HeLa cells; 94.4% in series [2]; 17.5% in series [3]; 94.6% in series [4]; 13.4% in series [5]. Besides, the inhibition at 20 µM in series [6] is 22.9%; in the series on Huh7 cells, 11.8%. Also, the figures for the EC50 in series [2] and in series [4] were 1500 nM and 3450 nM, respectively.
On to `CCOC(=O)CN1CC(=O)/C(=C\NNc2ccccc2)C1=O` [PluriSIn #11], for which the inhibition at 20 µM in series [1] was 94%; in the series with HeLa cells, -0.7%; in series [2], 90.6%; in series [3], 3.3%; in series [4] it was 92.5%; in series [5], -4.7%. Moreover, the results for the inhibition at 20 µM (in series [6]; in the series with Huh7 cells) were -5.8% and 7%, respectively. In addition, the EC50 in series [2] was found to be 3120 nM; in series [4] it was 3620 nM.
As to `O=C(NN(C(=O)c1ccccc1)c1ccccc1)c1ccc(Cl)cc1` [PluriSIn #14], the inhibition at 20 µM in series [1] is 79.4%; with HeLa cells, -2.3%; in series [2], 81.7%; in series [3], 0%; in series [4], 90.1%; in series [5], -4.1%. Also, the figures for the inhibition at 20 µM (in series [6]; in the series on Huh7 cells) were 3.9% and 11.5%, respectively. The 50% effective concentration (EC50) came to 3480 nM in series [2] and 5520 nM in series [4].
In the case of `C/C(=N\O)NNc1ccc(Cl)cc1` [PluriSIn #9], the inhibition at 20 µM is 101% in series [1]; -0.7% in the series on HeLa cells; 92.3% in series [2]; 6% in series [3]; 89.2% in series [4]; 6.1% in series [5]. Also, the inhibition at 20 µM was found to be 24.7% in series [6] and 10.4% in the series on Huh7 cells. Further, the figures for the EC50 in series [2] and in series [4] were 3420 nM and 4610 nM, respectively.
Turning to `O=S(=O)(NNc1ccccc1)c1ccc2ccccc2c1` [PluriSIn #5], the inhibition at 20 µM in series [1] was 82.2%; with HeLa cells it was -0.6%; in series [2] it was 87.9%; in series [3], 0.2%; in series [4], 92.3%; in series [5], 0.3%. Further, the inhibition at 20 µM came to 3.1% in series [6] and 3.6% in the series on Huh7 cells. The figures for the EC50 in series [2] and in series [4] were 1520 nM and 3200 nM, respectively.
